Measured values from patent publication US8283373B2, “Inhibitors of cytosolic phospholipase A2” (Pfizer Inc., priority 2005, dated 2012).
Entries after “also recorded” stand apart in the source; their conditions may differ.

Assays:
[1] = tested on: OVA-induced pulmonary inflammation; experiment: Rat antigen induced pulmonary inflammation model; type: in vivo
Protocol: The efficacy of the compound of Example 10 was evaluated in a Brown Norway rat model in which ovalbumin (OVA)-sensitized animals were challenged via the airways with an aerosol of ovalbumin (OVA) on days 1 and 2. OVA sensitized rats were challenged via aerosol on day 1 and day 2. The compound of Example 10 was administered at 30 mg/kg PO BID 1 hour prior to challenge and 10 hours after challenge over the 2 day challenge period. Dexamethasone was administered at 3 mg/kg IP 1 hour prior to challenge on day 1 and day 2. Animals were sacrificed on day 3 and bronchoalveolar cavities ravaged for analysis of cellular influx.

[2] = tested on: collagen-induced arthritis; experiment: Collagen-induced arthritis (CIA) model; type: in vivo, mouse
Protocol: The compound of Example 10 was tested in the mouse CIA model, which has many immunologic and pathologic similarities to human rheumatoid arthritis (See Trentham, D. E., et al., supra). Arthritis was induced in DBA/1LacJ mice by intradermal injection of an emulsion of bovine type II collagen and CFA followed by a boost with an intradermal injection of bovine type II collagen emulsified in incomplete Freund's Adjuvant 21 days after the initial immunization. […] At that point animals were randomly assigned to treatment groups and administered the compound of Example 10 (100 mg/kg) PO BID for 28 days. Control groups received celecoxib, vehicle alone or were left untreated. All animals were scored daily in a blinded fashion for visual signs of disease symptoms.
The mean scores of the group treated with the compound of Example 10 were compared to the vehicle-control group values using the Student's t-test.
After completion of the experiments, paws were processed for histology. Two board certified veterinary pathologist evaluated the slides in a blinded fashion. Each paw was assigned a numerical score for both arthritis severity and the general number of joints affected.

In the case of `O=C(O)c1ccc(CCCc2c(CCNS(=O)(=O)Cc3ccccc3C(F)(F)F)n(C(c3ccccc3)c3ccccc3)c3ccc(Cl)cc23)cc1` [Example 10, 4-(3-{5-chloro-1-(diphenylmethyl)-2-[2-({[2-(trifluoromethyl)benzyl]sulfonyl}amino)ethyl]-1H-indol-3-yl}propyl)benzoic acid], the “influx of lymphocytes or neutrophils” value ([1]; 30 mg/kg PO BID) was “no significant effect”, the “total numbers of inflammatory cells within the BALF” value ([1]; 30 mg/kg PO BID) was “statistically significantly attenuated” and the “Bronchoalveolar lavage fluid (BALF) eosinophil influx” value ([1]; 30 mg/kg PO BID over 2 day challenge, 8 out of 8 independent studies) was “statistically significantly inhibited”. For the same molecule, the “group mean severity scores (paw histology)” value ([2]; 100 mg/kg BID) was “lowest group mean severity scores”, the “percentage of unaffected (grade 0) paws (histology)” value ([2]; 100 mg/kg BID) was “highest percentage of unaffected (grade 0) paws” and the “number of animals without disease symptoms” value ([2]; 100 mg/kg PO BID) was “greatest”. The “disease severity scores vs vehicle control” value ([2]; 100 mg/kg PO BID for 28 days, semi-therapeutic, from day 10) was “statistically significant decrease; also recorded: significant reduction of disease”, the “average severity grade (histology), pathologist 1” value ([2]; 100 mg/kg, vehicle 2.1) was 0.9 and the “average severity grade (histology), pathologist 2” value ([2]; 100 mg/kg, vehicle 3.0) was 2.1.
